According to patent US4961920A, “Phototherapeutic monovinyl and divinyl ether-linked dimers” (Luminis Pty, Ltd., priority 1988, dated 1990):

Tested on: Lewis lung carcinoma cells
Assay: Photosensitization of tumors: days for Lewis lung carcinoma to regrow to palpable tumor in mice after red-light irradiation
Type: in vivo
Details: 25-60 mg/kg, i.p. or i.v.; red light 24 h after dosing; groups of 10 C57BL mice; end point 5 out of 10 mice regrow palpable tumor
Description: Lewis lung carcinoma cells (Dr. L. Dent, Flinders Medical Centre), are transplanted into the back of C57BL mice by subcutaneous injection of approximately 10^6 cells per mouse. […] Twenty-four hours later mice are anesthetized, the fur over the tumor shaved, and a 1 cm diameter area over the tumor is irradiated with red light as specified. Mice are palpated daily for recurrence of tumor. The end point is the number of days for 5 out of 10 mice to regrow palpable tumor.
Light can be supplied by a gold metal vapor laser (Quentron Optica Pty. Ltd.) with wavelength 627.8 nm. This laser generates average light intensities of 400 mW coupled to a 400 um quartz fiber and can be positioned to create a 1 cm diameter spot.
Data were recorded as "TC50 "--the first time (in days) after treatment for the tumor to regrow to a palpable stage (as shown in Table 1).

With “Divinyldeuteroporphyrin Ether-linked Dimer [(1) where both R = vinyl]” the “TC50 (first time after treatment for the tumor to regrow to a palpable stage)” value was 7 days.
For “Monohydroxyethyl Monovinyl Deuteroporphyrin Ether-linked Dimer”, the “TC50 (first time after treatment for the tumor to regrow to a palpable stage)” value was 3 days.
